Here are results for 21 molecules from patent US20250122223A1, “HETEROCYCLIC COMPOUNDS AS UBIQUITIN SPECIFIC PROTEASE 7 INHIBITORS” (ALMAC DISCOVERY LIMITED, priority 2022, published 2025).

The target in the assay is USP7 (Homo sapiens (Human), UniProt Q93009). As to the kind of experiment: USP7 fluorescence polarisation (FP) assay with ubiquitin-Lys-TAMRA substrate. Type of assay: biochemical. Particulars: biochemical inhibition. A general note: In fluorescence polarisation assays a small probe gives low polarisation when free and higher when bound to something large.
Where [1] appears, read: read-out: USP7 IC50 activity (Table 3a, classes).
[2] abbreviates: unit not given in Table 3b (Table 1 and key of Table 3a use μM), read-out: USP7 IC50 activity (Table 3b).

Where two headings read alike, the source gives them in different places.

Chain of USP7 (Q93009 whole entry): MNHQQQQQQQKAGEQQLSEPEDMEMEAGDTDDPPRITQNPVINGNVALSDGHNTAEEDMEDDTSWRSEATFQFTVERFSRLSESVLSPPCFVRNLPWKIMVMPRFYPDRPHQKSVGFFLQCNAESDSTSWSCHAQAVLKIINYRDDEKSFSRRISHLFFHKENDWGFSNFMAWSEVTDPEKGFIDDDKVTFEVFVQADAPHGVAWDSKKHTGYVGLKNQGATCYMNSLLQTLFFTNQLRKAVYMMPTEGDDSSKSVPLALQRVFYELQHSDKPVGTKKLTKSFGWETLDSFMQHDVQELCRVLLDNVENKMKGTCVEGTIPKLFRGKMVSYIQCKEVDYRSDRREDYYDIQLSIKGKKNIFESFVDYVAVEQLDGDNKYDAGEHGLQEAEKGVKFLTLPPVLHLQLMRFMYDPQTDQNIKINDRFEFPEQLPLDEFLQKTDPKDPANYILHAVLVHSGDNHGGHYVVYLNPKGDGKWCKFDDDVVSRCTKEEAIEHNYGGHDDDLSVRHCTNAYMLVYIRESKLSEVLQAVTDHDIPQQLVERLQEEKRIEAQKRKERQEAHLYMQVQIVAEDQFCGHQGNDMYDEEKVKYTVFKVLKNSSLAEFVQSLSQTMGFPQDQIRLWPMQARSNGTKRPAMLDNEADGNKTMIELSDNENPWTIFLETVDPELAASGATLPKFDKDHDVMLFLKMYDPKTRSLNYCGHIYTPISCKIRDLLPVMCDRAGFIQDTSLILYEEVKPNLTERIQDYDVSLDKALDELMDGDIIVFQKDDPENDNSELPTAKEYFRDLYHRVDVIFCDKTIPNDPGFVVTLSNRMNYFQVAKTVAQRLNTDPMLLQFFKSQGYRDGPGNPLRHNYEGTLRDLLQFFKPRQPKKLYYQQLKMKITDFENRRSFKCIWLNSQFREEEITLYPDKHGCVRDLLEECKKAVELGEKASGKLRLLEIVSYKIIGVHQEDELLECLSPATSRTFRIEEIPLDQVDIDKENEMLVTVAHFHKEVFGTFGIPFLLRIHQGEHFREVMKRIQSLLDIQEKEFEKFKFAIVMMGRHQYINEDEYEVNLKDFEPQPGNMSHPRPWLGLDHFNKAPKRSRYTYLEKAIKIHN

Usually IC50 stands for the point on the concentration scale where inhibition reaches its midpoint. In the case of `C[C@H]1CN[C@H](c2ccc(-n3ccc4c(=O)n(CC5(O)CCN(C(=O)c6ccc(Cl)cc6)CC5)cnc43)cc2)CO1` (racemic) [Example 17, rac-3-((1-(4-Chlorobenzoyl)-4-hydroxypiperidin-4-yl)methyl)-7-(4-((3R,6S)-6-methylmorpholin-3-yl)phenyl)-3,7-dihydro-4H-pyrrolo[2,3-d]pyrimidin-4-one], the IC50 under setting [1] was 0.1 to 0.25 µM and the IC50 under setting [2] worked out at 0.175 µM.

For the molecule `CC[C@H]1CN[C@H](c2ccc(-n3c(Cl)cc4c(=O)n(CC5(O)CCN(C(=O)[C@]6(C)C[C@H]6C)CC5)cnc43)cc2)CO1` [Example 96, 6-Chloro-3-((1-((1R,2R)-1,2-dimethylcyclopropane-1-carbonyl)-4-hydroxypiperidin-4-yl)methyl)-7-(4-((3R,6S)-6-ethylmorpholin-3-yl)phenyl)-3,7-dihydro-4H-pyrrolo[2,3-d]pyrimidin-4-one], the IC50 is, setting by setting: under setting [1], less than 0.1 µM; under setting [2], 0.037 µM.

Turning to `O=C(c1ccc(Cl)cc1)N1CCC(O)(Cn2cnc3c(cc(Cl)n3-c3ccc(C4COC5CCCC5N4)cc3)c2=O)CC1` (stereo not drawn) [Example 54, 6-Chloro-3-((1-(4-chlorobenzoyl)-4-hydroxypiperidin-4-yl)methyl)-7-(4-(octahydrocyclopenta[b][1,4]oxazin-3-yl)phenyl)-3,7-dihydro-4H-pyrrolo[2,3-d]pyrimidin-4-one], the concentration for half-maximal inhibition (IC50) is 0.1 to 0.25 µM under setting [1] and 0.151 µM under setting [2].

Consider `CC[C@H]1CN[C@H](c2ccc(-n3c(Cl)cc4c(=O)n(CC5(O)CCN(C(=O)c6ccc(Cl)cc6)CC5)cnc43)cc2)CO1` [Example 46, 6-Chloro-3-((1-(4-chlorobenzoyl)-4-hydroxypiperidin-4-yl)methyl)-7-(4-((3R,6S)-6-ethylmorpholin-3-yl)phenyl)-3,7-dihydro-4H-pyrrolo[2,3-d]pyrimidin-4-one], for which the half-maximal inhibitory concentration (IC50) was 0.1 to 0.25 µM under setting [1] and 0.162 µM under setting [2].

For `C[C@H]1CN[C@H](c2ccc(-n3c(Cl)cc4c(=O)n(CC5(O)CCN(C(=O)C6(C)CC6)CC5)cnc43)cc2)CO1` (racemic) [Example 1, rac-6-Chloro-3-((4-hydroxy-1-(1-methylcyclopropane-1-carbonyl)piperidin-4-yl)methyl)-7-(4-((3R,6S)-6-methylmorpholin-3-yl)phenyl)-3,7-dihydro-4H-pyrrolo[2,3-d]pyrimidin-4-one], the IC50 was less than 0.1 µM under setting [1] and 0.03 µM under setting [2].

`Cc1ccc(C(=O)N2CCC(O)(Cn3cnc4c(cc(Cl)n4-c4ccc([C@H]5CO[C@H](C)CN5)c(C)c4)c3=O)CC2)c(C)c1` [Example 58, 6-Chloro-3-((1-(2,4-dimethylbenzoyl)-4-hydroxypiperidin-4-yl)methyl)-7-(3-methyl-4-((3S,6R)-6-methylmorpholin-3-yl)phenyl)-3,7-dihydro-4H-pyrrolo[2,3-d]pyrimidin-4-one]: the half-maximal inhibitory concentration (IC50) under setting [1] fell in the range of 0.25 to 2 µM and the IC50 under setting [2] was found to be 0.414 µM.

On to `CC1(C)CN[C@H](c2ccc(-n3c(Cl)cc4c(=O)n(CC5(O)CCN(C(=O)C6(C)CC6)CC5)cnc43)cc2)CO1` (single isomer, unassigned) [Example 98, (R)-6-Chloro-7-(4-(6,6-dimethylmorpholin-3-yl)phenyl)-3-((4-hydroxy-1-(1-methylcyclopropane-1-carbonyl)piperidin-4-yl)methyl)-3,7-dihydro-4H-pyrrolo[2,3-d]pyrimidin-4-one or (S)-6-chloro-7-(4-(6,6-dimethylmorpholin-3-yl)phenyl)-3-((4-hydroxy-1-(1-methylcyclopropane-1-carbonyl)piperidin-4-yl)methyl)-3,7-dihydro-4H-pyrrolo[2,3-d]pyrimidin-4-one], for which the IC50 reads like this: under setting [1], less than 0.1 µM; under setting [2], 0.045 µM.

`CC1(C(=O)N2CCC(O)(Cn3cnc4c(cc(Cl)n4-c4ccc([C@@H]5COCCN5)cc4)c3=O)CC2)CC1C(F)(F)F` (stereo partly drawn) [Example 84, 6-Chloro-3-((4-hydroxy-1-(1-methyl-2-(trifluoromethyl)cyclopropane-1-carbonyl)piperidin-4-yl)methyl)-7-(4-((R)-morpholin-3-yl)phenyl)-3,7-dihydro-4H-pyrrolo[2,3-d]pyrimidin-4-one]: the IC50 was less than 0.1 µM under setting [1] and 0.045 µM under setting [2].

As for `C[C@@H]1CN[C@@H](c2ccc(-n3c(Cl)cc4c(=O)n(CC5(O)CCN(C(=O)c6ccc(Cl)cc6)CC5)cnc43)cc2)CO1` [Example 11, 6-Chloro-3-((1-(4-chlorobenzoyl)-4-hydroxypiperidin-4-yl)methyl)-7-(4-((3S,6R)-6-methylmorpholin-3-yl)phenyl)-3,7-dihydro-4H-pyrrolo[2,3-d]pyrimidin-4-one], the IC50 is less than 0.1 µM under setting [1] and 0.08 µM under setting [2].

Consider `C[C@@H]1CN[C@H](c2ccc(-n3c(Cl)cc4c(=O)n(CC5(O)CCN(C(=O)c6ccc(Cl)cc6)CC5)cnc43)cc2)CO1` (single isomer, unassigned) [Example 69], for which the IC50 under setting [1] is 0.25 to 2 µM and the IC50 under setting [2] turned out to be 0.586 µM.

Turning to `O=C(c1ccc(Cl)cc1)N1CCC(O)(Cn2cnc3c(cc(Cl)n3-c3ccc(C4COC5CC5N4)cc3)c2=O)CC1` (stereo not drawn) [Example 60, 7-(4-(2-Oxa-5-azabicyclo[4.1.0]heptan-4-yl)phenyl)-6-chloro-3-((1-(4-chlorobenzoyl)-4-hydroxypiperidin-4-yl)methyl)-3,7-dihydro-4H-pyrrolo[2,3-d]pyrimidin-4-one], the IC50 is, setting by setting: under setting [1], 0.25 to 2 µM; under setting [2], 0.313 µM.

Turning to `C[C@H]1CN[C@H](c2ccc(-n3c(Cl)cc4c(=O)n(CC5(O)CCN(C(=O)[C@@]6(C)C[C@@H]6C(F)F)CC5)cnc43)cc2)CO1` [Example 111, 6-Chloro-3-((1-((1 S,2S)-2-(difluoromethyl)-1-methylcyclopropane-1-carbonyl)-4-hydroxypiperidin-4-yl)methyl)-7-(4-((3R,6S)-6-methylmorpholin-3-yl)phenyl)-3,7-dihydro-4H-pyrrolo[2,3-d]pyrimidin-4-one], the IC50 by setting is: under setting [1], 0.1 to 0.25 µM; under setting [2], 0.145 µM.

On to `C[C@H]1CN[C@H](c2ccc(-n3c(Cl)cc4c(=O)n(CC5(O)CCN(C(=O)c6ccccc6Cl)CC5)cnc43)cc2)CO1` [Example 31, 6-Chloro-3-((1-(2-chlorobenzoyl)-4-hydroxypiperidin-4-yl)methyl)-7-(4-((3R,6S)-6-methylmorpholin-3-yl)phenyl)-3,7-dihydro-4H-pyrrolo[2,3-d]pyrimidin-4-one], for which the IC50 under setting [1] is 0.1 to 0.25 µM and the IC50 under setting [2] came to 0.144 µM.

With `CC1(C)CN[C@@H](c2ccc(-n3c(Cl)cc4c(=O)n(CC5(O)CCN(C(=O)C[C@H](c6ccccc6)C(F)(F)F)CC5)cnc43)cc2)CO1` (mixture of isomers) [Example 10, 6-Chloro-7-(4-((S)-6,6-dimethylmorpholin-3-yl)phenyl)-3-((4-hydroxy-1-((R)-4,4,4-trifluoro-3-phenylbutanoyl)piperidin-4-yl)methyl)-3,7-dihydro-4H-pyrrolo[2,3-d]pyrimidin-4-one and 6-chloro-7-(4-((R)-6,6-dimethylmorpholin-3-yl)phenyl)-3-((4-hydroxy-1-((R)-4,4,4-trifluoro-3-phenylbutanoyl)piperidin-4-yl)methyl)-3,7-dihydro-4H-pyrrolo[2,3-d]pyrimidin-4-one], the 50% inhibitory concentration (IC50) was less than 0.1 µM under setting [1] and 0.017 µM under setting [2].

Take `CC1(C)CN[C@H](c2ccc(-n3c(Cl)cc4c(=O)n(CC5(O)CCN(C(=O)c6ccc(Cl)cc6)CC5)cnc43)cc2)CO1` (single isomer, unassigned) [Example 34]: the IC50 by setting is: under setting [1], less than 0.1 µM; under setting [2], 0.088 µM.

For `C[C@@H]1CN[C@@H](c2ccc(-n3c(Cl)cc4c(=O)n(CC5(O)CCN(C(=O)C[C@H](c6ccccc6)C(F)(F)F)CC5)cnc43)cc2)CO1` [Example 13, 6-Chloro-3-((4-hydroxy-1-((R)-4,4,4-trifluoro-3-phenylbutanoyl)piperidin-4-yl)methyl)-7-(4-((3S,6R)-6-methylmorpholin-3-yl)phenyl)-3,7-dihydro-4H-pyrrolo[2,3-d]pyrimidin-4-one], the IC50 is less than 0.1 µM under setting [1] and 0.028 µM under setting [2].

`Cc1cc(-n2c(Cl)cc3c(=O)n(CC4(O)CCN(C(=O)c5ccc(C(F)(F)F)cc5)CC4)cnc32)ccc1[C@H]1CO[C@H](C)CN1` [Example 56, 6-Chloro-3-((4-hydroxy-1-(4-(trifluoromethyl)benzol)piperidin-4-yl)methyl)-7-(3-methyl-4-((3S,6R)-6-methylmorpholin-3-yl)phenyl)-3,7-dihydro-4H-pyrrolo[2,3-d]pyrimidin-4-one]: the IC50 by setting is: under setting [1], 0.1 to 0.25 µM; under setting [2], 0.113 µM.

For the molecule `CC1(C)CN[C@H](c2ccc(-n3c(Cl)cc4c(=O)n(CC5(O)CCN(C(=O)C6(C7CC7)CC6)CC5)cnc43)cc2)CO1` (single isomer, unassigned) [Example 40], the IC50 runs as follows: under setting [1], 0.1 to 0.25 µM; under setting [2], 0.156 µM.

`CC1(C(=O)N2CCC(O)(Cn3cnc4c(cc(Cl)n4-c4ccc(C5COCC6(CC6)N5)cc4)c3=O)CC2)CC1` (stereo not drawn) [Example 19, 7-(4-(7-Oxa-4-azaspiro[2.5]octan-5-yl)phenyl)-6-chloro-3-((4-hydroxy-1-(1-methylcyclopropane-1-carbonyl)piperidin-4-yl)methyl)-3,7-dihydro-4H-pyrrolo[2,3-d]pyrimidin-4-one]: the IC50 runs as follows: under setting [1], 0.25 to 2 µM; under setting [2], 0.372 µM.

On to `CC1(C)CN[C@@H](c2ccc(-n3c(Cl)cc4c(=O)n(CC5(O)CCN(C(=O)c6ccc(F)cc6)CC5)cnc43)cc2)CO1` (single isomer, unassigned) [Example 28], for which the IC50 is 0.1 to 0.25 µM under setting [1] and 0.218 µM under setting [2].

Consider `O=C(c1ccc(Cl)cc1)N1CCC(O)(Cn2cnc3c(cc(Cl)n3-c3ccc([C@@H]4CO[C@@H](C(F)(F)F)CN4)cc3)c2=O)CC1` (racemic) [Example 9, rac-6-Chloro-3-((1-(4-chlorobenzoyl)-4-hydroxypiperidin-4-yl)methyl)-7-(4-((3R,6R)-6-(trifluoromethyl)morpholin-3-yl)phenyl)-3,7-dihydro-4H-pyrrolo[2,3-d]pyrimidin-4-one], for which the IC50 reads like this: under setting [1], 0.25 to 2 µM; under setting [2], 0.42 µM.
